Measured values as given in US7005271B1, “Method for the determination of the prethrombotic state” (priority 1994, dated 2006).

Key:
U937 cells = test: DNA analysis by flow cytometry of U937 cells after apoptosis induction; format: cell-based; conditions: 40 μM 7β hydroxycholesterol
Experimental: U937 cells are grown in a humidified 5% CO2 atmosphere at 37° C., using RPMI 1640 medium with Glutamax-I, supplemented with 10% heat-inactivated fetal calf serum, 1 mM sodium pyruvate, non-essential amino acids and gentamicin icin at 5 μg/mL Cells are usually plated at an initial conentration of 1.10^5/ml. Apoptosis induction is achieved by 40 μM 7β hydroxycholesterol- or 5 μg/ml actinomycin D-treatment of U937 cells at 37° C. during 8 to 24 hours. Cells have to be seeded at 3 to 4.10^5 cells per ml 6 h before treatment. Cell supernatant is obtained by centrifugation of treated cells at 500 g during 7 min and CaCl2 is added to a final concentration of 10 mM before addition of 200 μl/well of supernatant. For each experiment, a control without 7β hydroxycholesterol or actinomycin D has to be performed and culture medium containing 10% fetal calf serum should also be tested. It has to be emphasized that the content of microparticles of 10% fetal calf serum was low, probably due to removal of most of the cell fragments at sterilizing ultrafiltration. The amount of captured microparticles is determined using the prothrombinase assay.
The Prothrombinase Activity is Correlated with DNA Analysis by Flow Cytometry (Table 2)

[1] = Storage stability of biotinylated annexin V; format: physicochemical
Experimental: After 90 min at 25° C., the reaction is stopped by adding IM Lysine/HCl to a final concentration of 10 mM. The biotinylated annexin V is finally dialysed overnight at 4° C. against Storage buffer.

Row | Compound | % of hypodiploid DNA (U937 cells; 0 h treatment) [%] | % of hypodiploid DNA (U937 cells; 8 h treatment) [%] | % of hypodiploid DNA (U937 cells; 10 h treatment) [%] | % of hypodiploid DNA (U937 cells; 12 h treatment) [%] | % of hypodiploid DNA (U937 cells; 20 h treatment) [%] | % of hypodiploid DNA (U937 cells; 22 h treatment) [%] | storage stability ([1]; stored below 0° C.) | storage stability (anti-phospholipid potential) ([1]; stored for months at −80° C.)
1 | CC(C)CCC[C@@H](C)[C@H]1CC[C@H]2[C@@H]3[C@@H](O)C=C4C[C@@H](O)CC[C@]4(C)[C@H]3CC[C@]12C [7β-hydroxycholesterol] | 2.75 | 9.43 | 12.58 | 18.31 | 35.03 | 41.54 |  | 
2 | annexin-V^Bi: Human placenta annexin V biotinylated with biotin-X-OSu, insolubilized onto streptavidin-coated plates as capture receptor |  |  |  |  |  |  | stable for weeks | without detectable loss of anti-phospholipid potential
